We go through 3 compounds from patent US4299839A, “Novel pesticides and pesticidal compositions cyclopropanecarboxylates and pesticidal method” (priority 1979, dated 1981).

In one data set the test system is green rice leafhoppers. Kind of data set: Utility Example 1: emulsifiable concentrate sprayed over rice seedlings, green rice leafhopper mortality. In kind it is in vivo. To be noted: 30% emulsifiable concentrate diluted 300-fold, 100 ml/pot, 24 hours; cis/trans 50/50. As to the method:
To 30 parts of each of Compounds (1) to (38) were added 50 parts of xylene and 20 parts of Sorpol SM-200 (a surfactant, trademark of Toho Chemical Co., Ltd.). The mixture was stirred well and dissolved to obtain a 30% emulsifiable concentrate.
The emulsifiable concentrate prepared from Compounds (7), (11), (12), (15), (17), (21) and (22) [Each compound is a mixture of cis- and trans-isomer in a ratio 50/50] in Formulation Example 5 were each diluted 300-fold with water. Then, each of the dilutions was sprayed over rice seedlings 25 days after sowing at the rate of 100 ml/pot. The pot was covered with a wire net and 15 green rice leafhoppers were released under the net. After 24 hours, the leafhoppers were examined for deaths. The mortality (%) was not less than 90% for each of Compounds (7), (11), (12), (15), (17), (21) and (22).

Another data set relates to houseflies. Kind of data set: Utility Example 3: settling mist method, mortality test against houseflies, oil preparations of Formulation Example 3. In kind it is in vivo. The note with it: oil preparation of Formulation Example 3 (0.1 part compound + 0.08 part permethrin per 100 parts), 24 hours; cis/trans 50/50. As to the method:
To 0.1 part of each of Compounds (1) to (38) was added 0.08 part of permethrin, followed by the addition of a sufficient amount of kerosene to make 100 parts. The mixture was stirred to obtain an oil preparation of each compound.
By the settling mist method, a mortality test against houseflies was carried out using the oil preparations obtained in Formulation Example 3 from Compounds (1), (5), (7), (9), (11), (12), (15), (17) and (28) [Each compound is a mixture of cis- and trans-isomer in a ratio 50/50]. After 24 hours, the flies were examined for deaths. The mortality (%) was not less than 90% for each of Compounds (1), (5), (7), (9), (11), (12), (15), (17) and (28).

Regarding `CC1(C)C(CC(Cl)(Cl)Cl)C1C(=O)OC(C#N)c1cccc(Oc2ccc(Br)cc2)c1` (stereo not drawn) [(17), 3-(4-Bromophenoxy)-α-cyanobenzyl 2,2-dimethyl-3-(2,2,2-trichloroethyl)cyclopropanecarboxylate], the “Mortality (%)” value in the data set with green rice leafhoppers was “not less than 90%”.
Same read-out and setting: in the case of `C#CC(OC(=O)C1C(CC(Cl)(Cl)Cl)C1(C)C)c1cccc(Oc2ccc(Br)cc2)c1` (stereo not drawn) [(22), 3-(4-Bromophenoxy)-α-ethynylbenzyl 2,2-dimethyl-3-(2,2,2-trichloroethyl)cyclopropanecarboxylate] it was “not less than 90%”.
`CC(Cl)(Cl)CC1C(C(=O)OC(C#N)c2cccc(Oc3ccccc3)c2)C1(C)C` (stereo not drawn) [Compound (9), 3-Phenoxy-α-cyanobenzyl 2,2-dimethyl-3-(2,2-dichloropropyl)cyclopropanecarboxylate]: the “Mortality (%)” value in the data set with houseflies is on record as “not less than 90%”.
